Data: patent publication US9986723B2, “Screen and use of therapeutics for pancreatic ductal adenocarcinoma” (The Board of Regents of the University of Texas System, priority 2014, dated 2018)

Assays:
ASPC = assay: MTS cell growth assay, gemcitabine +/- warfarin; format: cell-based, human; conditions: warfarin 2 μM
Procedure: (§1) Cytotoxicity and augmentation of chemotherapy response was measured by MTS assays conducted in 96-well plates; cells were plated on day 0 and drug was added on day 1 in 4-fold dilutions. Maximum concentration of 2,000 nmol/L for gemcitabine was used with or without the addition of a constant concentration of 2 μM warfarin or 1.1 μM 10C9. Relative cell number was determined by adding MTS (Promega; final concentration […]), incubating for 1 to 3 hours at 37° C., and reading absorbance. Drug sensitivity curves and IC50s were calculated using in-house software.

Panc1 = assay: MTS cell growth assay, gemcitabine +/- warfarin; format: cell-based, human; conditions: warfarin 2 μM
Procedure: as §1

primary PDA cells = assay: Rgs16::GFP PDA primary cell culture, live cell counts after 24 hr drug treatment; format: cell-based, mouse; conditions: 24 hr, gemcitabine 10 μM, BGB324 or warfarin 1 or 10 μM
Procedure: Cell proliferation counts of primary PDA culture after 24 hr treatment with (FIG. 20A) gemcitabine (purple round); (FIG. 20B) BGB324 (green round); (FIG. 20C) warfarin (blue round); or (FIG. 20D) BGB324 with warfarin (green or blue round) at the indicated concentrations. PDA primary cells were plated at equal density (black open circle) at the start. Next day, cells were treated with drugs (D, red font) for 24 hr (red line). Approximate cell number at the start of drug treatment was obtained from another plate with equal density (red open circle). At the end of treatment, cells in each group were counted and subsequent passages started with cells plated at equal density (grey asterisk). Drug treated groups were allowed to grow without drug selection thereafter. Control cells (Ctrl) on separate plates were grown without drug and counted at the end of each passage (black open circle). PDA live cell numbers were obtained via counts using a hemocytometer after 2% Trypan blue staining to distinguish between living and dead cells under an inverted microscope with 10× objective. Statistical significances are based on comparison of drug-treated cell counts to Ctrl. […] Statistical analyses were obtained by comparing counts of drug-treated cells to Ctrl via unpaired and two-tailed Student's t-test. *, p<0.05; **, p<0.01; ***, p<0.001; ****, p<0.0001. Asterisks match the color of the comparison group.
Rgs16::GFP PDA primary cell culture. Primary Rgs16::GFP PDA cells were harvested from 6-week-old KIC mice. Cells were grown in 25 mM Glucose DMEM (HyClone) with 10% FBS (Serum Source International), penicillin and streptomycin (Life Technologies) on rat tail collagen typel (BD Biosciences) coated plates (0.5 μg/cm^2) in a humidified incubator at 37° C. and 5% CO2. Cells reaching confluency were washed twice with PBS (HyClone) and lifted with 0.05% Trypsin-EDTA (HyClone) treatment up to 10 min in the incubator. For drug tests in FIGS. 20A-D, primary PDA cells were incubated with gemcitabine (10 μM dissolved in PBS), warfarin (1 μM or 10 μM dissolved in water), BGB324 (1 μM or 10 μM dissolved in DMSO) or warfarin and BGB324 together for 24 hrs in 37° C. incubator. PDA live cell numbers were obtained via counts using a hemocytometer following 2% trypan blue staining to distinguish dead cells under an inverted microscope.

[1] = tested on: AsPC-1, Mia PaCa-2, and Capan-1 cells; assay: Soft agar anchorage-independent growth assay; format: cell-based, human; conditions: warfarin 2 μM, 14 days; Axl-expressing cells
Procedure: FIGS. 25A-I. Axl inhibition reduces colony formation and enhances chemotherapy. (FIGS. 25A-C) parental Mia PaCa-2 cells or Mia PaCa-2 cells stably transfected with shRNA targeting Axl (Mia shAxl) were grown as spheroids in matrigel for 7 days in the presence or absence of warfarin (200 ng/ml), n=4/condition. Mia PaCa-2 cell colonies form large stellate colonies characteristic of invasive tumor growth. Colonies and cognate cell projections were imaged (FIG. 25A) with a Nikon Phase contrast microscope using 40× and 200× magnification. Mean total colony number (FIG. 25B) and total colony area+/−s.d. (FIG. 25C) reflective of invasive growth were calculated using Image J image analysis. Scale bar, 100 μm. ****, p<0.001 vs Mia PaCa-2 NT; ##, p<0.01; ###, p<0.005. by ANOVA with Tukey's MCT. […] (FIG. 25E) liver metastases were quantified after intrasplenic injection of C5LM2 cells. […] Mice were sacrificed when control treated animals were moribund and primary and metastatic burden was determined. […]
Anchorage-independent growth assays were performed by coating 12 well plates with 0.5-0.75% agar. […] Fresh media and drug were added twice weekly and colonies were measured by light microscopy at 2 weeks; assays were performed in quadruplicate.

Compound: CC(=O)CC(c1ccccc1)c1c(O)c2ccccc2oc1=O (racemic) [Warfarin]
- Fold Reduction of gemcitabine IC50 in presence of warfarin (ASPC): 8.4 fold
- Fold Reduction of gemcitabine IC50 in presence of warfarin (Panc1): 211 fold
- effect on cell viability and proliferation (primary PDA cells): little or no effect on cell growth
- effect on cell viability and proliferation (primary PDA cells; listed as warfarin): no effect
- anchorage independent growth [1]: inhibited
